Drawing on article PMC9138505, “Small Molecule 20S Proteasome Enhancer Regulates MYC Protein Stability and Exhibits Antitumor Activity in Multiple Myeloma” (Biomedicines, 2022), this text covers average tumor volume and CC50 for one compound.

A word on the CC50: it is the concentration at which the toxic effect on the cells reaches its halfway point.

For experiment [1], the system named is RPMI-8226 subcutaneous xenograft. Put plainly: RPMI-8226 xenograft tumor model. The settings on record: after 42 days; TCH-165 100 mg/kg bid oral; bortezomib 0.375 reduced to 0.09 mg/kg i.v. 3X per week.
The test system of experiment [2] is primary cells from a BTZ refractory MM patient. Put plainly: Primary cell viability, CellTiter-Glo, 72 h. Particulars: Homo sapiens. (In general: ATP-based viability assays read luminescence as a measure of living cells.)
From the text: (§1) White blood cells (WBCs) were separated from red blood cells by the Ficoll density gradient. Multiple myeloma cells were then isolated from WBCs using human CD138 affinity magnetic beads (Miltenyi Biotec; cat#130-093-062; Gaithersburg, MD, USA) following the manufacturer’s protocol. Cells were cryopreserved in 10% DMSO in FBS. Revived cells were maintained in an RPMI medium with 10% FBS for 10 days prior to treatment. […] Cells were equilibrated to RT and CellTiter-Glo (Promega; Madison, WI, USA) solution (100 μL) was added and incubated with shaking for 10 min at RT. The assay plate was then allowed to equilibrate for 5 min at RT and luminescent readings were taken on a SpectraMax® M5. Data are presented as a percentage of the vehicle control for each experimental condition, after background subtraction. Error bars represent SD for triplicate wells.
Experiment [3] concerns primary human MM cells of newly diagnosed patient. Description: Primary cell viability, CellTiter-Glo, 72 h.
From the text: as §1

On to `CC(C)C[C@H](NC(=O)[C@H](Cc1ccccc1)NC(=O)c1cnccn1)B(O)O` [bortezomib, reference compound], for which the average tumor volume in experiment [1] is recorded as 771.41 (±129.35) mm^3. The CC50 in experiment [2] was above 1000 nM; in experiment [3], 4 nM.
